Results published in ChEMBL document CHEMBL5352459, “Resorcinol-based hemiindigoid derivatives as human tyrosinase inhibitors and melanogenesis suppressors in human melanoma cells” (Eur J Med Chem, 2023).

T1: Tyrosinase (Homo sapiens, UniProt P14679)
T1 sequence (P14679 whole entry): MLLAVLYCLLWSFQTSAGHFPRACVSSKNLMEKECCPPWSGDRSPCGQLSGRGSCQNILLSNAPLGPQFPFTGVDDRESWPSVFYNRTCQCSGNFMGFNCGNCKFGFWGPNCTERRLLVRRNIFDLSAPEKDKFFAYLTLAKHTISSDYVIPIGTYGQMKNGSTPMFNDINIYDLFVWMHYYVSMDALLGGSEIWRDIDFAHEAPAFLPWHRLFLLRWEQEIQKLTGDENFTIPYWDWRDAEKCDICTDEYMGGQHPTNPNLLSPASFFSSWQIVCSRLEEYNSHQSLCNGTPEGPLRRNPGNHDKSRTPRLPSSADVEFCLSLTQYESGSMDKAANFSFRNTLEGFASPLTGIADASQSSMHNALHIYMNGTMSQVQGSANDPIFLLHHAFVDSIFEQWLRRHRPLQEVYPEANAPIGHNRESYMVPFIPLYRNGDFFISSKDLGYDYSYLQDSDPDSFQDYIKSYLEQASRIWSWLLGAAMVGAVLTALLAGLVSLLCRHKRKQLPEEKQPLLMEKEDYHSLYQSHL

B1: Tyrosinase (Homo sapiens), P14679 (protein)
chain: T1 sequence (P14679 whole entry)

biological target: T1, Tyrosinase; test: Inhibition of human tyrosinase; conditions: not given

IC50 | Molecule
> 3000 µM | Oc1cccc(O)c1 [RESORCINOL]

biological target: T1, Tyrosinase; test: not given; conditions: not given

IC50 | Molecule
> 100 µM | COc1ccc2c(c1C)O/C(=C\c1ccc(O)cc1O)C2=O
8.2 µM | CC1/C(=C\c2ccc(O)cc2O)C(=O)c2ccccc21 (centres undefined)
25 µM | O=C1/C(=C/c2ccc(O)cc2O)Oc2cccc(O)c21
15 µM | O=C1/C(=C/c2c(O)cc(O)cc2O)Oc2cc(O)ccc21
19 µM | O=C1/C(=C/c2ccc(O)cc2O)Oc2ccc(O)cc21
> 100 µM | O=c1cc(-c2ccc(O)cc2O)oc2ccccc12
> 100 µM | O=C1C(=Cc2ccc(O)cc2O)C(=O)c2ccccc21
15 µM | O=C1/C(=C/c2ccc(=O)n(O)c2)Oc2cc(O)ccc21
> 100 µM | Nc1c(C(=O)c2ccc(O)cc2O)oc2c(O)cccc12
> 100 µM | COc1cc(OC)c2c(c1)O/C(=C\c1ccc(O)cc1O)C2=O
2.3 µM | O=C1/C(=C/c2ccc(O)cc2O)Nc2cc(O)ccc21
80 µM | Cc1c(O)ccc2c1O/C(=C\c1ccc(O)cc1O)C2=O
18 µM | O=C1/C(=C/c2ccc(O)cc2O)Oc2ccccc21
6.9 µM | COc1ccc2c(c1)O/C(=C\c1ccc(O)cc1O)C2=O
88 µM | O=C1/C(=C/c2ccc(O)cc2O)Oc2cc(F)cc(F)c21
1.57 µM | O=C1/C(=C/c2ccc(O)cc2O)Oc2c(O)cccc21
> 100 µM | Oc1ccc(Cc2cc3cccc(O)c3o2)c(O)c1
60 µM | O=C(/C=C/c1ccc(O)cc1O)c1ccccc1
80 µM | COc1cccc2c1O/C(=C\c1ccc(O)cc1O)C2=O
12.7 µM | O=C1/C(=C/c2ccc(O)cc2O)Nc2ccccc21

IC50 | Molecule
32 µM | O=C1/C(=C/c2ccc(O)cc2O)Oc2c1ccc(O)c2I
8.3 µM | CCCCc1ccc(O)cc1O [RUCINOL]
18.4 µM | CN(C)c1cc(O)c2c(c1)O/C(=C\c1ccc(O)cc1O)C2=O
> 100 µM | O=c1c2ccccc2[nH]n1Cc1ccc(O)cc1O
> 100 µM | Cc1c(C(=O)c2ccc(O)cc2O)oc2c(O)cccc12
> 100 µM | CN(C)c1ccc2c(c1)O/C(=C\c1ccc(O)cc1O)C2=O
48 µM | O=C1/C(=C/c2ccc(O)cc2O)Sc2c(O)cccc21
> 100 µM | COc1cc(O)ccc1/C=C1\Oc2cc(O)ccc2C1=O
> 100 µM | COc1ccc2c(c1OC)O/C(=C\c1ccc(O)cc1O)C2=O
6.4 µM | O=C1/C(=C/c2ccc(O)cc2O)Oc2cc(O)ccc21
7.7 µM | O=C1/C(=C/c2ccc(O)cc2O)Oc2cc(O)cc(O)c21
> 100 µM | O=C1c2ccccc2C(=O)N1Cc1ccc(O)cc1O
5.8 µM | O=C1/C(=C/c2ccc(O)cc2O)Sc2cc(O)ccc21
> 100 µM | CCCCOc1ccc2c(c1)O/C(=C\c1ccc(O)cc1O)C2=O
5.9 µM | O=C1/C(=C/c2ccc(O)cc2O)Sc2ccccc21
1.6 µM | O=C1/C(=C/c2ccc(O)cc2O)Cc2c(O)cccc21
> 100 µM | O=C1/C(=C/c2ccc(O)cc2O)Oc2cc(Cl)ccc21
3.4 µM | O=C1/C(=C/c2ccc(O)cc2O)Cc2cc(O)ccc21
5.8 µM | O=C1/C(=C/c2ccc(O)cc2O)Cc2ccccc21
11.8 µM | O=C1/C(=C/c2ccc(O)cc2O)Oc2c1ccc(O)c2O

biological target: T1, Tyrosinase; test: not given; conditions: not given; remark: another data set of the same source

Ki | Molecule
0.55 µM | O=C1/C(=C/c2ccc(O)cc2O)Oc2c(O)cccc21
0.25 µM | O=C1/C(=C/c2ccc(O)cc2O)Cc2c(O)cccc21

biological target: Mushroom tyrosinase (Agaricus bisporus, UniProt O42713+Q00024+C7FF04+C7FF05); test: not given; conditions: not given

Ki | Molecule
1.27 µM | O=C1/C(=C/c2ccc(=O)n(O)c2)Oc2cc(O)ccc21

test system: MNT-1; test: cells; conditions: Homo sapiens, MNT-1, 96 h
Description: Inhibition of melanogenesis in human MNT-1 cells incubated for 96 hrs

IC50 | Molecule
32 µM | O=C1/C(=C/c2ccc(O)cc2O)Oc2c(O)cccc21
29 µM | O=C1/C(=C/c2ccc(O)cc2O)Cc2c(O)cccc21

test system: not listed separately; test: in vitro; conditions: human, MNT-1 cells
Description: Cytotoxicity against human MNT-1 cells

Molecule | CC50
O=C1/C(=C/c2ccc(O)cc2O)Oc2c(O)cccc21 | 108 µM
O=C1/C(=C/c2ccc(O)cc2O)Cc2c(O)cccc21 | 91 µM

compound: O=C1/C(=C/c2ccc(O)cc2O)Cc2c(O)cccc21; test: not given; format: cell-based; conditions: Homo sapiens; HEK293T; dose 0-8 µM, time 1.0 hrs

Molecule | Km
B1 | 161 µM

compound: O=C1/C(=C/c2ccc(O)cc2O)Oc2c(O)cccc21; test: not given; format: cell-based; conditions: Homo sapiens; HEK293T; dose 0-8 µM, time 1.0 hrs

Molecule | Km
B1 | 143 µM

compound: O=C1/C(=C/c2ccc(O)cc2O)Cc2c(O)cccc21; test: not given; format: cell-based; conditions: Homo sapiens; HEK293T; dose 0-8 µM, time 1.0 hrs; remark: another data set of the same source

Molecule | Vmax
B1 | 5.18 µmol/min/mg

compound: O=C1/C(=C/c2ccc(O)cc2O)Oc2c(O)cccc21; test: not given; format: cell-based; conditions: Homo sapiens; HEK293T; dose 0-8 µM, time 1.0 hrs; remark: another data set of the same source

Molecule | Vmax
B1 | 4.86 µmol/min/mg

compound: O=C1/C(=C/c2ccc(O)cc2O)Cc2c(O)cccc21; test: not given; format: cell-based; conditions: Homo sapiens; HEK293T; dose 0-8 µM, time 1.0 hrs; remark: another data set of the same source

Molecule | kcat
B1 | 5.78 s⁻¹

compound: O=C1/C(=C/c2ccc(O)cc2O)Oc2c(O)cccc21; test: not given; format: cell-based; conditions: Homo sapiens; HEK293T; dose 0-8 µM, time 1.0 hrs; remark: another data set of the same source

Molecule | kcat
B1 | 5.41 s⁻¹
